Laboratory results taken from patent publication US20200246365A1, “COMPOUNDS, PHARMACEUTICAL COMPOSITIONS AND USE THEREOF AS INHIBITORS OF RAN GTPASE” (THE ROYAL INSTITUTION FOR THE ADVANCEMENT OF LEARNING / …, priority 2017, published 2020).

How the values were obtained:
[1] = target: T1, recombinant human Ran protein (Homo sapiens, UniProt P62826); test: Surface Plasmon Resonance (SPR) binding to immobilized Ran; conditions: different compound concentrations, reached saturation
T1 construct: Recombinant Ran protein was purchased from Sigma-Aldrich Inc. (R3152)
Experimental: SPR experiments were carried out using the Biacore 3000 system. Recombinant Ran protein was purchased from Sigma-Aldrich Inc. (R3152). The running buffer contained PBS, pH7.4, 1 mM GDP, 2 mM MgCl2 and 0.2% DMSO. The regeneration buffer contained 10 mM glycine (pH 2.5). Ran-GDP protein was immobilized onto a CM5 chip; samples of compounds in running buffer were injected at 30 μL/min for 10 minutes contact time followed by 5 minutes regeneration. Kd was calculated using the GraphPad Prism 5 software.

TOV112D cells = test: Clonogenic survival assay, TOV112D; format: cell-based, human
Experimental: (§1) The human EOC cell lines used (TOV81D, TOV112D, OV90, TOV21G, OV866(2), TOV1369(R), OV1369(R2), TOV1946, OV1946, TOV2295(R), OV4485) were derived in our laboratory from patients' tumors (TOV) or ascites (OV). All EOC cell lines were maintained in a low oxygen condition of 7% O2 and 5% CO2 and grown in OSE medium (Wisent, Montreal, QC) supplemented with 10% FBS (Wisent), 0.5 μg/mL amphotericin B (Wisent) and 50 μg/mL gentamicin (Life Technologies Inc., Burlington, ON). The human retinal epithelial cell line ARPE-19 was purchased from American Type Culture Collection (ATCC, Manassas, Va.) and maintained in DMEM-F12 (Wisent) supplemented with 10% FBS (Wisent), 0.5 μg/mL amphotericin B (Wisent) and 50 μg/mL gentamicin (Life Technologies Inc.).
(§2) Clonogenic assays were performed as previously described. Colonies were counted under a stereo microscope and reported as percent of control. IC50 values were determined using Graph Pad Prism 5 software (GraphPad Software Inc., San Diego, Calif.). Each experiment was performed in duplicate and repeated three times. Sensitivity of the cell lines to small molecules inhibitors of Ran was assessed using a concentration range of 0-50 μM.
(§3) Small molecules inhibitors of Ran were dissolved in 100% dimethyl sulfoxide (DMSO) and then further diluted in complete culture media for in vitro experiments. Drugs were added 24 hours after seeding.

ARPE-19 cells = test: Clonogenic survival assay, ARPE-19; format: cell-based, human
Experimental: as §1, §2, §3

[2] = system: other aneuploid EOC cells; test: IncuCyte cell proliferation assay, other aneuploid EOC cell lines; format: cell-based, human; conditions: 40 μM
Experimental: as §1
Cells (2,000 cells/well) were plated in a 96-well plate. The next day, compounds were added at the indicated concentrations. Following treatment, cell confluence was imaged by phase contrast using the IncuCyte live cell monitoring system (Essen BioScience, Ann Arbor, Mich.). Frames were captured at 2-hour intervals using a 10× objective. For Ran knock down experiments, cells were seeded in a 96-well plate (4,000 cells/well) directly after transfection. Cell confluence monitoring started the next day as described above.
as §3

Ran-GTP [3] = target: T2, Ran-GTP (Homo sapiens, UniProt P62826); test: Ran activation (Ran-GTP pull-down) assay in TOV112D cells; format: cell-based; conditions: 1 hour treatment, vs DMSO
Experimental: Cells were seeded onto 6-well tissue culture plates in such a way that cell confluence reaches approximately 70% the day of experiment. The day of experiment cells were treated for 1 hour with the indicated compounds prior to protein extraction and quantification. Assays were performed using the Ran activation assay kit (Cell Biolabs). Briefly, 400 μg of lysates were incubated for one hour at 4° C. with agarose beads conjugated to RANBP1, which specifically binds Ran-GTP. Beads were pelleted, washed, and re-suspended in SDS-PAGE buffer, followed by immunoblotting with an anti-Ran antibody.

Rac1-GTP = Rac1-GTP (Homo sapiens, UniProt P63000); test: Rac1-GTP pull-down assay; format: cell-based; conditions: 50 μM M36 (FIG. 7F)
RhoA = RhoA (Homo sapiens, UniProt P61586); test: RhoA activation ELISA in TOV112D cells; format: cell-based; conditions: vs DMSO
Chain of RhoA (P61586 whole entry): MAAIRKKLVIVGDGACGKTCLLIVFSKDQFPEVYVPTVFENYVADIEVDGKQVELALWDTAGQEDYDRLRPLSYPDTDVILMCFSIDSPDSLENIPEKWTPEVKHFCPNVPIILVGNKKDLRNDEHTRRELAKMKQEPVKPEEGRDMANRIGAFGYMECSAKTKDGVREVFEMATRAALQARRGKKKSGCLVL

Cdc42 = Cdc42 (Homo sapiens, UniProt P60953); test: Cdc42 activation ELISA in TOV112D cells; format: cell-based; conditions: vs DMSO
Chain of Cdc42 (P60953 whole entry): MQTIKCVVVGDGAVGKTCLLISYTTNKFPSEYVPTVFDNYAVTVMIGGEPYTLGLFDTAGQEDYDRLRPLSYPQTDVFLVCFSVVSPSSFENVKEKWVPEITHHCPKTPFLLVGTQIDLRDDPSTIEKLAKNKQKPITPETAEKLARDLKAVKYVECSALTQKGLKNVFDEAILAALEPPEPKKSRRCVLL

cleaved PARP = test: Apoptosis by PARP cleavage (Western blot); format: cell-based, human; conditions: 96 hours after treatment
Experimental: Cells were lysed with RIPA buffer containing protease inhibitors. Whole cell lysates were run through a Bradford assay (Thermo Fisher Scientific) for protein quantification. Around 25-50 μg of proteins were separated onto 12.5% SDS-PAGE and transferred onto nitrocellulose membranes. The resultant blots were probed with Ran (1:10000, sc-271376 Santa Cruz Biotechnology, Dallas, Tex.), cleaved PARP (1:1000, #9541, Cell Signaling Technology Inc., Danvers, Mass.), GAPDH (1:2500, #2118, Cell Signaling Technology Inc.) or beta-actin (1:50000, ab6276, Abcam Inc., Toronto, ON, Canada) primary antibodies overnight at 4° C. then with peroxidase-conjugated secondary antibodies for 2 hours at room temperature. Proteins were detected using enhanced chemiluminescence (Thermo Fisher Scientific).

Ran-GTP [4] = target: T2, Ran-GTP; test: Ran-GTP immunofluorescence in TOV112D cells; format: cell-based; conditions: TOV112D cells vs DMSO-treated
Experimental: M36 and R28-treated and control TOV112D cells grown on coverslips were washed with 1×PBS, fixed in 4% paraformaldehyde and permeabilized with 0.25% Triton X-100 (Sigma-Aldrich Inc.). After blocking (4% BSA and 4% FBS in PBS), coverslips were incubated with the monoclonal anti-RanGTP antibody (26915, NewEastBioscences) diluted 1:100 in blocking buffer for 2 hours at room temperature. Subsequently, samples were incubated with Cy-5 secondary antibody (1:500, Life Technologies Inc.) for 1 hour and coverslips were mounted onto slides using Prolong® Gold anti-fade reagent with DAPI (Life Technologies Inc.). Samples were visualized under a Zeiss microscope (Zeiss observer Z1) with a 20× objective.

[5] = Pharmacokinetics in CD1 mice; format: in vivo
Experimental: For the pharmacokinetic studies, 6-week-old female CD1 mice (Charles River laboratories, Senneville, QC, Canada) received a single intravenous or intraperitoneal injection of M36 or QR20 (50 mg/kg), dissolved in DMSO 10%, Kolliphor® EL 10%, PEG-400 20% and PBS 60% (QR20 was also dissolved in DMSO 10%, PBS 90%). For each time point (15 minutes, 30 minutes, […], 1 hour, 2 hours and 6 hours), 3 mice were sacrificed and blood was collected by cardiac puncture. Thereafter, the plasma level of each compound was measured by mass spectrometry.

[6] = Tolerance test in NRG mice; format: in vivo; conditions: daily i.p. 75 mg/kg for 15 days
Experimental: For the tolerance test, M36 and QR20 compounds were dissolved in DMSO 10%, Kolliphor® EL 10%, PEG-400 20% and PBS 60% and injected intraperitoneally into 6-week-old female Nod Rag Gamma (NRG) mice (The Jackson laboratory, Bar Harbor, Me.) daily at 75 mg/kg. During this study, mice (n=3) were monitored for survival and weight loss/gain.

[7] = system: prostate cancer cell lines (LNCaP, 22RV1, PC3, DU145); test: Cell proliferation, prostate cancer cell lines; format: cell-based
γH2AX foci = γH2AX foci immunostaining in TOV112D cells; format: cell-based, human
RAD51/Geminin foci (HR) = test: RAD51/Geminin foci after gamma-irradiation in TOV112D cells; format: cell-based, human
53BP1 = 53BP1 immunofluorescence after gamma-irradiation in TOV112D cells; format: cell-based, human
[8] = system: TOV112D cells overexpressing DA Ran; test: Cell survival of TOV112D cells transfected with Ran WT or dominant active mutant; format: cell-based, human

Q: Which results are given for `NC(=S)[C@@H]1O[C@H](COCc2ccc(F)cc2)[C@@H](OCc2ccc(F)cc2)[C@H]1OCc1ccc(F)cc1` [M36]?
A: binding to the immobilized Ran protein [1]: concentration-dependent binding; IC50 (TOV112D cells; Homo sapiens, TOV112D, read-out: IC50 value for the TOV112D cell line by clonogenic assay): 10 ± 0.36 µM; colony formation of TOV112D cells (TOV112D cells; single dose 10 μM): inhibited colony formation of TOV112D cells; effect on normal ARPE-19 cell line in detailed clonogenic assay (ARPE-19 cells; different concentrations): almost no effect; colony formation of ARPE-19 cells (ARPE-19 cells; single dose 10 μM): without affecting the ARPE-19 cells; cell proliferation of other aneuploid EOC cells [2]: inhibited cell proliferation; active Ran-GTP levels (pull-down) (Ran-GTP [3]): concentration-dependent decrease in Ran-GTP levels; Rac1-GTP levels (pull-down) (Rac1-GTP): no decreased levels of Rac1-GTP; activation of RhoA (RhoA-GTP levels) (RhoA): does not inhibit the activation; activation of Cdc42 (Cdc42-GTP levels) (Cdc42): does not inhibit the activation; apoptosis (cleaved PARP on Western blot) (cleaved PARP): induced cell apoptosis; Ran-GTP levels by immunofluorescence (Ran-GTP [4]): no detectable levels of Ran-GTP; pharmacokinetics profile based on AUC values ([5]; 50 mg/kg): good pharmacokinetics profiles; absorption after intraperitoneal vs intravenous injection (plasma levels) ([5]; 50 mg/kg single injection): less absorbed than compound QR20; persistence in the circulation ([5]; 50 mg/kg single injection): persists longer in the circulation; tolerance [6]: well tolerated; weight loss [6]: no weight loss; effect on prostate cancer cell lines [7]: also effective in prostate cancer cell lines; DNA damage (γH2AX foci) (γH2AX foci; 48 hours or 72 hours treatment): increases DNA damage; DNA double-strand breaks repair (γH2AX foci clearance) (γH2AX foci; after gamma-irradiation): delays DNA double-strand breaks repair; HR pathway (RAD51/Geminin foci) (RAD51/Geminin foci (HR)): inhibiting the HR and NHEJ pathways; NHEJ pathway (53BP1 foci) (53BP1; after gamma-irradiation): inhibiting the HR and NHEJ pathways; nuclear localization of 53BP1 (53BP1; cytoplasmic staining): interferes with the nuclear localization of 53BP1; inhibition of cell proliferation with DA Ran overexpression [8]: attenuated when DA Ran was overexpressed
